From US20100075435A1, “BIOTINYLATED THYROXINE” (priority 2008, published 2010)

Tested on: T4-streptavidin (Biotin-PEG4-T4 streptavidin conjugate) immobilized flow cell Fc3
Test: SPR bivalent kinetic analysis of antibodies on T4-streptavidin immobilized flow cell (Biocore 3000, CM5 chip)
Type: binding
Settings: comparison of antibodies 1 and 2
Protocol: The biotinylated thyroxine obtained in Example 1 (PEG n=4) (Biotin-PEG4-T4) (1.2 mg) was dissolved in 189.8 microliters of DMSO.
A 98 microliter quantity of 1 mg/mL of streptavidin and 1.33 microliters of the DMSO solution (5 mM) of Biotin-PEG4-T4 obtained above were dissolved in 0.67 microliters of HBSN. Here, the streptavidin:biotin ratio was 1:4 (mole ratio).
A Biocore 3000 (Biocore) was employed as the surface plasmon resonance (SPR) device. CM5 sensor chips were employed, and four flow cells (Fc 1 to 4) were prepared according to the following procedure. The flow rate was 10 microliters/min.
A flow of a 70 microliter quantity of a mixed solution of equal quantities of EDC (1-ethyl-3-(3-dimethylaminopropyl)carbodiimide) and NHS (N-hydroxysuccinimide) was run (7 minutes), after which a flow of a 70 microliter quantity of a solution of streptavidin in […] (0.2 mg/mL, pH 5.0) was run (7 minutes). Subsequently, a flow of ethanolamine was similarly run.
A flow of a 70 microliter quantity of mixed solution of equal quantities of EDC and NHS was run (7 minutes), after which a flow of a 70 microliter solution of T4-streptavidin in […] (0.2 mg/mL, pH 5.0) was run (7 minutes). […]
It was necessary to conduct interaction analysis at the minimum level of immobilization within the range over which the S/N ratio could be calculated. […]

Compound: COC(=O)C(Cc1cc(I)c(Oc2cc(I)c(O)c(I)c2)c(I)c1)NC(=O)CCOCCOCCOCCOCCNC(=O)CCCCC1SCC2NC(=O)NC21 (stereo not shown) [Example 1, Biotinylated Thyroxine (PEG n=4)]
- binding rates: about the same binding rates
